The experiment concerns the target T1, Axl (Homo sapiens, UniProt P30530).
T1 sequence (P30530 26-894): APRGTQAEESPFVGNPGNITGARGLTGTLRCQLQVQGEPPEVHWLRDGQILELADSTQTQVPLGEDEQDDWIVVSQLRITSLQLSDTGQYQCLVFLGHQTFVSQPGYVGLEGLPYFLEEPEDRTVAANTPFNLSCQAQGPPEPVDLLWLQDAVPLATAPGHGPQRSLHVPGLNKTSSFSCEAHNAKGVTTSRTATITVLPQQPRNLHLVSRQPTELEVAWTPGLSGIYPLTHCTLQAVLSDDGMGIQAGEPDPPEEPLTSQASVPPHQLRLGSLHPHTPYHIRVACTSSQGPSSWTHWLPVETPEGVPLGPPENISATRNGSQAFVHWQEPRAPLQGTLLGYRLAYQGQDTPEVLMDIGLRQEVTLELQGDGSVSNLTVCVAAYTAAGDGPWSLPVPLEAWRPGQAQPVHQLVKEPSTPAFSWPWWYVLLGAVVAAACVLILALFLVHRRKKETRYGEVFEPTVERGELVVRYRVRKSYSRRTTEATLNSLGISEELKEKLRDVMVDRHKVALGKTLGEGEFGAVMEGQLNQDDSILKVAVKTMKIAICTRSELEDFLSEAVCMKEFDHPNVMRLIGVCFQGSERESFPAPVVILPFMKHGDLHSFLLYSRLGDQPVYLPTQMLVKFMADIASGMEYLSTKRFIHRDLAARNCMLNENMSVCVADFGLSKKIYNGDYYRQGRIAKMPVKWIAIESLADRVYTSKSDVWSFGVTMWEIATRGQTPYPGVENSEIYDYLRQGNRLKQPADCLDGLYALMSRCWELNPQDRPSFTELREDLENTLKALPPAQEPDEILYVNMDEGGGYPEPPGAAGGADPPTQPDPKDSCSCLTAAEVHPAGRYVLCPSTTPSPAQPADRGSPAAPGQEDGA
Kind of experiment: Biochemical potency, HTRF KinEASE-TK kinase assay. Further details: purchased Invitrogen. As to conditions: 5 nM AXL, 700 μM ATP. The procedure, abridged:
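Compounds preincubated 1 h at RT with enzyme in 50 mM HEPES pH 7.4, 10 mM MgCl2, 0.01% BSA, 1 mM DTT; reactions then ran 2 h at RT with 5 nM AXL or 1 nM TYRO3/MER, 800 nM TK substrate-biotin, 700 μM ATP, 1% DMSO. HTRF 665/620 ratio read; percent activity calculated.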

On to `O=C(c1cccnc1-c1ccc(-c2n[nH]c3ncc(-c4ccc5c(c4)CC[C@@H](N4C6COCC4C6)CC5)cc23)cc1)N1CCCC1` [Example 4, 6-[(7S)-2-(3-{4-[3-(Pyrrolidine-1-carbonyl)pyridin-2-yl]phenyl}-1H-pyrazolo[3,4-b]pyridin-5-yl)-6,7,8,9-tetrahydro-5H-benzo[7]annulen-7-yl]-3-oxa-6-azabicyclo[3.1.1]heptane], for which the IC50 was under 100 nM. `c1cnc(-c2ccc(-c3c[nH]c4ncc(-c5ccc6c(c5)CC[C@@H](N5C7COCC5C7)CC6)cc34)cc2)c(N2CCOCC2)c1` [Example 5, 6-[(7S)-2-(3-{4-[3-(Morpholin-4-yl)pyridin-2-yl]phenyl}-1H-pyrrolo[2,3-b]pyridin-5-yl)-6,7,8,9-tetrahydro-5H-benzo[7]annulen-7-yl]-3-oxa-6-azabicyclo[3.1.1]heptane]: the IC50 was under 100 nM. On to `CN(C)S(=O)(=O)c1cccnc1-c1ccc(-c2c[nH]c3ncc(-c4ccc5c(c4)CC[C@@H](N4C6COCC4C6)CC5)cc23)cc1` [Example 6, N,N-Dimethyl-2-(4-{5-[(7S)-7-{3-oxa-6-azabicyclo[3.1.1]heptan-6-yl}-6,7,8,9-tetrahydro-5H-benzo[7]annulen-2-yl]-1H-pyrrolo[2,3-b]pyridin-3-yl}phenyl)pyridine-3-sulfonamide], for which the IC50 is under 100 nM. With `O=C1CCCN1c1cccnc1-c1ccc(-c2c[nH]c3ncc(-c4ccc5c(c4)CC[C@@H](N4C6COCC4C6)CC5)cc23)cc1` [Example 7, 1-[2-(4-{5-[(7S)-7-{3-Oxa-6-azabicyclo[3.1.1]heptan-6-yl}-6,7,8,9-tetrahydro-5H-benzo[7]annulen-2-yl]-1H-pyrrolo[2,3-b]pyridin-3-yl}phenyl)pyridin-3-yl]pyrrolidin-2-one], the half-maximal inhibitory concentration (IC50) is under 100 nM. With `Cc1nn(C)nc1-c1ccc(-c2n[nH]c3ncc(-c4ccc5c(c4)CC[C@@H](N4C6COCC4C6)CC5)cc23)cc1` [Example 14, 6-[(7S)-2-{3-[4-(2,5-Dimethyl-2H-1,2,3-triazol-4-yl)phenyl]-1H-pyrazolo[3,4-b]pyridin-5-yl}-6,7,8,9-tetrahydro-5H-benzo[7]annulen-7-yl]-3-oxa-6-azabicyclo[3.1.1]heptane] the figure was under 100 nM; with `CC(C)(C#N)c1cccnc1-c1ccc(-c2c[nH]c3ncc(-c4ccc5c(c4)CC[C@@H](N4C6COCC4C6)CC5)cc23)cc1` [Example 21, 2-Methyl-2-[2-[4-[5-[(7S)-7-(3-oxa-6-azabicyclo[3.1.1]heptan-6-yl)-6,7,8,9-tetrahydro-5H-benzo[7]annulen-3-yl]-1H-pyrrolo[2,3-b]pyridin-3-yl]phenyl]pyridin-3-yl]propanenitrile], under 100 nM. On to `OC1(c2cccnc2-c2ccc(-c3c[nH]c4ncc(-c5ccc6c(c5)CC[C@@H](N5C7COCC5C7)CC6)cc34)cc2)CCC1` [Example 22, 1-[2-[4-[5-[(7S)-7-(3-Oxa-6-azabicyclo[3.1.1]heptan-6-yl)-6,7,8,9-tetrahydro-5H-benzo[7]annulen-3-yl]-1H-pyrrolo[2,3-b]pyridin-3-yl]phenyl]pyridin-3-yl]cyclobutan-1-ol], for which the IC50 was under 100 nM. On to `Cc1nc(-c2ccc(-c3n[nH]c4ncc(-c5ccc6c(c5)CC[C@@H](N5C7COCC5C7)CC6)cc34)cc2)n(C)n1` [Example 23, 6-[(7S)-2-{3-[4-(1,3-Dimethyl-1H-1,2,4-triazol-5-yl)phenyl]-1H-pyrazolo[3,4-b]pyridin-5-yl}-6,7,8,9-tetrahydro-5H-benzo[7]annulen-7-yl]-3-oxa-6-azabicyclo[3.1.1]heptane], for which the IC50 was under 100 nM.

The molecule `Cc1cccnc1-c1ccc(-c2n[nH]c3ncc(-c4ccc5c(c4)CC[C@@H](N4C6COCC4C6)CC5)cc23)nc1` [Example 26, 3-Methyl-6′-{5-[(7S)-7-{3-oxa-6-azabicyclo[3.1.1]heptan-6-yl}-6,7,8,9-tetrahydro-5H-benzo[7]annulen-2-yl]-1H-pyrazolo[3,4-b]pyridin-3-yl}-2,3′-bipyridine] yielded an IC50 of under 100 nM. `Cc1cc(F)cnc1-c1ccc(-c2n[nH]c3ncc(-c4ccc5c(c4)CC[C@@H](N4C6COCC4C6)CC5)cc23)cc1` [Example 28, 6-[(7S)-3-[3-[4-(5-Fluoro-3-methylpyridin-2-yl)phenyl]-1H-pyrazolo[3,4-b]pyridin-5-yl]-6,7,8,9-tetrahydro-5H-benzo[7]annulen-7-yl]-3-oxa-6-azabicyclo[3.1.1]heptane] returned an IC50 of under 100 nM.

Consider `Cc1cc(F)cnc1-c1ccc(-c2c[nH]c3ncc(-c4ccc5c(c4)CC[C@@H](N4C6COCC4C6)CC5)cc23)cc1` [Example 29, 6-[(7S)-3-[3-[4-(5-Fluoro-3-methylpyridin-2-yl)phenyl]-1H-pyrrolo[2,3-b]pyridin-5-yl]-6,7,8,9-tetrahydro-5H-benzo[7]annulen-7-yl]-3-oxa-6-azabicyclo[3.1.1]heptane], for which the IC50 is under 100 nM. The value for `Cc1cc(-c2ncccc2C)ccc1-c1n[nH]c2ncc(-c3ccc4c(c3)CC[C@@H](N3C5COCC3C5)CC4)cc12` [Example 30, 6-[(7S)-3-[3-[2-Methyl-4-(3-methylpyridin-2-yl)phenyl]-1H-pyrazolo[3,4-b]pyridin-5-yl]-6,7,8,9-tetrahydro-5H-benzo[7]annulen-7-yl]-3-oxa-6-azabicyclo[3.1.1]heptane] was over 1000 nM; that for `O=c1ccccn1-c1ccc(-c2n[nH]c3ncc(-c4ccc5c(c4)CC[C@@H](N4C6COCC4C6)CC5)cc23)cc1` [Example 31, 1-[4-[5-[(7S)-7-(3-Oxa-6-azabicyclo[3.1.1]heptan-6-yl)-6,7,8,9-tetrahydro-5H-benzo[7]annulen-3-yl]-1H-pyrazolo[3,4-b]pyridin-3-yl]phenyl]pyridin-2-one] was under 100 nM.

Consider `c1ccc(-c2ccc(-c3c[nH]c4ncc(-c5ccc6c(c5)CC[C@@H](N[C@H]5CCCOC5)CC6)cc34)cc2)nc1` [Example 32, (3S)—N-[(7S)-3-[3-(4-Pyridin-2-ylphenyl)-1H-pyrrolo[2,3-b]pyridin-5-yl]-6,7,8,9-tetrahydro-5H-benzo[7]annulen-7-yl]oxan-3-amine], for which the IC50 was under 100 nM.

For the molecule `Cc1cccnc1-c1ccc(-c2c[nH]c3ncc(-c4ccc5c(c4)CC[C@@H](N4C6COCC4C6)CC5)cc23)nc1` [Example 96, 3-Methyl-6′-{5-[(7S)-7-{3-oxa-6-azabicyclo[3.1.1]heptan-6-yl}-6,7,8,9-tetrahydro-5H-benzo[7]annulen-2-yl]-1H-pyrrolo[2,3-b]pyridin-3-yl}-2,3′-bipyridine], the IC50 is under 100 nM. In the case of `Cc1ccccc1-c1ccc(-c2c[nH]c3ncc(-c4ccc5c(c4)CC[C@@H](N4C6COCC4C6)CC5)cc23)nc1` [Example 97, 6-[(7S)-2-{3-[5-(2-Methylphenyl)pyridin-2-yl]-1H-pyrrolo[2,3-b]pyridin-5-yl}-6,7,8,9-tetrahydro-5H-benzo[7]annulen-7-yl]-3-oxa-6-azabicyclo[3.1.1]heptane], the IC50 was under 100 nM.

`Cc1ccccc1-c1ccc(-c2n[nH]c3ncc(-c4ccc5c(c4)CC[C@@H](N4C6COCC4C6)CC5)cc23)nc1` [Example 98, 6-[(7S)-2-{3-[5-(2-Methylphenyl)pyridin-2-yl]-1H-pyrazolo[3,4-b]pyridin-5-yl}-6,7,8,9-tetrahydro-5H-benzo[7]annulen-7-yl]-3-oxa-6-azabicyclo[3.1.1]heptane] came in with an IC50 of under 100 nM. With `FC(F)Oc1cccnc1-c1ccc(-c2n[nH]c3ncc(-c4ccc5c(c4)CC[C@@H](N4C6COCC4C6)CC5)cc23)cc1` [Example 99, 6-[(7S)-2-(3-{4-[3-(Difluoromethoxy)pyridin-2-yl]phenyl}-1H-pyrazolo[3,4-b]pyridin-5-yl)-6,7,8,9-tetrahydro-5H-benzo[7]annulen-7-yl]-3-oxa-6-azabicyclo[3.1.1]heptane] the figure was under 100 nM; with `CC(C)(O)c1cccnc1-c1ccc(-c2n[nH]c3ncc(-c4ccc5c(c4)CC[C@@H](N4C6COCC4C6)CC5)cc23)nc1` [Example 100, 2-(6′-{5-[(7S)-7-{3-Oxa-6-azabicyclo[3.1.1]heptan-6-yl}-6,7,8,9-tetrahydro-5H-benzo[7]annulen-2-yl]-1H-pyrazolo[3,4-b]pyridin-3-yl}-[2,3′-bipyridin]-3-yl)propan-2-ol], under 100 nM. For `CS(=O)(=O)c1cccnc1-c1ccc(-c2n[nH]c3ncc(-c4ccc5c(c4)CC[C@@H](N4C6COCC4C6)CC5)cc23)cc1` [Example 101, 6-[(7S)-2-{3-[4-(3-Methanesulfonylpyridin-2-yl)phenyl]-1H-pyrazolo[3,4-b]pyridin-5-yl}-6,7,8,9-tetrahydro-5H-benzo[7]annulen-7-yl]-3-oxa-6-azabicyclo[3.1.1]heptane], the IC50 was under 100 nM.

The term IC50 denotes the midpoint of a concentration-inhibition curve. Lower therefore signals higher potency.

These data come from patent US12195482B1 (Arcus Biosciences, Inc., priority 2022, dated 2025).
